Experiment [1] has as its system GPR83 and deletion variant GPR83del (untagged or HA-tagged, U2OS clones). The experiment can be described thus: Intracellular calcium mobilization, U2OS cells. Format: cell-based, human. The following applies: 10 µM PEN, controls co mix or 50 µM ionomycin, traces over 60 s, ligand added 10 s after start of recording, Fluo4-AM, duplicate, repeated at least two times. The protocol: As activation of many GPCRs is coupled to calcium mobilization from intracellular stores, GPR83 was probed for ligand-dependent calcium release. Wild-type HEK293 cells and HEK293 clones overexpressing either full-length GPR83 or the N-terminal deletion variant GPR83del were exposed to buffer or one of two independent synthesis batches (PEN #1 and PEN #2) of the neuropeptide PEN, while calcium indicator fluorescence was recorded. […] Calcium release was also tested in a second cell line, osteosarcoma U2OS cells, using various stably expressing clones. […] Therefore, HEK293 cells transfected with Gα16 were employed to investigate a potential GPR83-dependent calcium mobilization with PEN. […] A number of GPCRs show ligand-independent basal calcium activity. […]
Figure 2 Investigation of ligand-dependent and ligand-independent intracellular calcium mobilization. […] (B) Calcium indicator fluorescence intensity traces over 60 s of various U2OS cell clones overexpressing untagged or HA-tagged GPR83 or the deletion variant GPR83del before and after the addition of buffer or ligand (co mix as in (A) or 50 µM ionomycin or 10 µM PEN). […]
Cells were seeded at 50,000 cells/well in a poly-D-lysine coated 96-well black well/clear bottom plate (BD Falcon, Franklin Lakes, NJ, USA) and cultured overnight. […] Fluorescence data were generated in duplicate, and experiments were repeated at least two times.
For orientation: Calcium assays in cells follow changes in intracellular calcium, usually with a dye or a luminescent sensor.

In experiment [2] the test system is GPR83 and GPR83del with Gα16 (HEK293). The experiment can be described thus: Intracellular calcium mobilization, Gα16-transfected HEK293 cells. Format: cell-based, human. The following applies: 10 µM PEN, 100 µM carbachol, 100 µM ATP, Fluo4-AM fluorescence, duplicate, repeated at least two times. The protocol: As activation of many GPCRs is coupled to calcium mobilization from intracellular stores, GPR83 was probed for ligand-dependent calcium release. Wild-type HEK293 cells and HEK293 clones overexpressing either full-length GPR83 or the N-terminal deletion variant GPR83del were exposed to buffer or one of two independent synthesis batches (PEN #1 and PEN #2) of the neuropeptide PEN, while calcium indicator fluorescence was recorded. […] Calcium release was also tested in a second cell line, osteosarcoma U2OS cells, using various stably expressing clones. […] Therefore, HEK293 cells transfected with Gα16 were employed to investigate a potential GPR83-dependent calcium mobilization with PEN. […] A number of GPCRs show ligand-independent basal calcium activity. However, in an experiment comparing basal calcium levels in wild-type HEK293 cells and in HEK293 clones overexpressing four different variants of GPR83, they were not found to be different (Figure 2D).
Figure 2 Investigation of ligand-dependent and ligand-independent intracellular calcium mobilization. (A) Wild-type HEK293 cells and HEK293 cell clones overexpressing either GPR83 or the deletion variant GPR83del were incubated with either buffer or the specified ligand (10 µM PEN or co mix = 100 µM carbachol, 100 µM ATP, 40 µM dimaprit, or 50 µM ionomycin). (B) Calcium indicator fluorescence intensity traces over 60 s of various U2OS cell clones overexpressing untagged or HA-tagged GPR83 or the deletion variant GPR83del before and after the addition of buffer or ligand (co mix as in (A) or 50 µM ionomycin or 10 µM PEN). […]
Cells were seeded at 50,000 cells/well in a poly-D-lysine coated 96-well black well/clear bottom plate (BD Falcon, Franklin Lakes, NJ, USA) and cultured overnight. […] Fluorescence was recorded with the fluorescence imaging plate reader CellLux (Perkin Elmer, Waltham, MA, USA) simultaneously in all wells at an excitation wavelength of 488 nm and emission wavelength of 510 nm in 1.5 s intervals over a period of 4 min. Fluorescence data were generated in duplicate, and experiments were repeated at least two times.

With “AADHDVGSELPPEGVLGALLRV [PEN, batch #1 synthesized, batch #2 purchased from Phoenix Pharmaceuticals]”, the “enhancement of calcium indicator fluorescence” value in experiment [1] is “PEN did not”. Besides, in experiment [2], the calcium signal result was “PEN did not”.

The values above are taken from article PMC10606834, “Is the Neuropeptide PEN a Ligand of GPR83?” (International Journal of Molecular Sciences, 2023).
